# In the NIST ThermoML archive (doi:10.1016/j.fluid.2006.03.015):
# Numbers after ± are expanded uncertainties.
# Experiment: molar heat capacity at constant pressure
# Settings: 101.33 kPa, Liquid
# [1] = 320.15 K, Small sample (50 mg) DSC
# [2] = 325.15 K, Small sample (50 mg) DSC
# [3] = 328.15 K, modulated-temperature differential scanning calorimetry MDSC
# [4] = 330.15 K, Small sample (50 mg) DSC
# [5] = 333.15 K, modulated-temperature differential scanning calorimetry MDSC
# [6] = 335.15 K, Small sample (50 mg) DSC
# [7] = 338.15 K, modulated-temperature differential scanning calorimetry MDSC
# [8] = 340.15 K, Small sample (50 mg) DSC
# [9] = 343.15 K, modulated-temperature differential scanning calorimetry MDSC
# [10] = 345.15 K, Small sample (50 mg) DSC
# [11] = 348.15 K, modulated-temperature differential scanning calorimetry MDSC
# [12] = 348.18 K, Large sample (1 g) DSC
# [13] = 350.15 K, Small sample (50 mg) DSC
# [14] = 353.15 K, modulated-temperature differential scanning calorimetry MDSC
# [15] = 355.15 K, Small sample (50 mg) DSC
# [16] = 358.15 K, modulated-temperature differential scanning calorimetry MDSC
# [17] = 360.15 K, Small sample (50 mg) DSC
# [18] = 363.15 K, modulated-temperature differential scanning calorimetry MDSC
# [19] = 365.15 K, Small sample (50 mg) DSC
# [20] = 368.15 K, modulated-temperature differential scanning calorimetry MDSC
# [21] = 370.15 K, Small sample (50 mg) DSC
# [22] = 373.13 K, Large sample (1 g) DSC
# [23] = 373.15 K, modulated-temperature differential scanning calorimetry MDSC
# [24] = 375.15 K, Small sample (50 mg) DSC
# [25] = 378.15 K, modulated-temperature differential scanning calorimetry MDSC
# [26] = 380.15 K, Small sample (50 mg) DSC
# [27] = 383.15 K, modulated-temperature differential scanning calorimetry MDSC
# [28] = 385.15 K, Small sample (50 mg) DSC
# [29] = 388.15 K, modulated-temperature differential scanning calorimetry MDSC
# [30] = 390.15 K, Small sample (50 mg) DSC
# [31] = 393.15 K, modulated-temperature differential scanning calorimetry MDSC
# [32] = 395.15 K, Small sample (50 mg) DSC
# [33] = 398.15 K, modulated-temperature differential scanning calorimetry MDSC
# [34] = 400.15 K, Small sample (50 mg) DSC
# [35] = 403.15 K, modulated-temperature differential scanning calorimetry MDSC
# [36] = 405.15 K, Small sample (50 mg) DSC
# [37] = 408.15 K, modulated-temperature differential scanning calorimetry MDSC
# [38] = 410.15 K, Small sample (50 mg) DSC
# [39] = 413.15 K, modulated-temperature differential scanning calorimetry MDSC
# [40] = 415.15 K, Small sample (50 mg) DSC
# [41] = 420.15 K, Small sample (50 mg) DSC
# [42] = 425.15 K, Small sample (50 mg) DSC
compound,measurement,setting,value
CCCCCC[n+]1ccn(C)c1.O=S(=O)([N-]S(=O)(=O)C(F)(F)F)C(F)(F)F,molar heat capacity at constant pressure,"318.17 K, Large sample (1 g) DSC",668 ± 35 J/K/mol
same,molar heat capacity at constant pressure,[1],672 ± 35 J/K/mol
same,molar heat capacity at constant pressure,"323.13 K, Large sample (1 g) DSC",672 ± 35 J/K/mol
same,molar heat capacity at constant pressure,"323.15 K, modulated-temperature differential scanning calorimetry MDSC",680 ± 34 J/K/mol
same,molar heat capacity at constant pressure,[2],675 ± 35 J/K/mol
same,molar heat capacity at constant pressure,"328.14 K, Large sample (1 g) DSC",673 ± 35 J/K/mol
same,molar heat capacity at constant pressure,[3],682 ± 34 J/K/mol
same,molar heat capacity at constant pressure,[4],679 ± 35 J/K/mol
same,molar heat capacity at constant pressure,[5],685 ± 34 J/K/mol
same,molar heat capacity at constant pressure,"333.16 K, Large sample (1 g) DSC",673 ± 35 J/K/mol
same,molar heat capacity at constant pressure,[6],681 ± 35 J/K/mol
same,molar heat capacity at constant pressure,[7],688 ± 34 J/K/mol
same,molar heat capacity at constant pressure,"338.16 K, Large sample (1 g) DSC",675 ± 35 J/K/mol
same,molar heat capacity at constant pressure,[8],684 ± 36 J/K/mol
same,molar heat capacity at constant pressure,[9],689 ± 34 J/K/mol
same,molar heat capacity at constant pressure,"343.17 K, Large sample (1 g) DSC",676 ± 35 J/K/mol
same,molar heat capacity at constant pressure,[10],686 ± 36 J/K/mol
same,molar heat capacity at constant pressure,[11],693 ± 35 J/K/mol
same,molar heat capacity at constant pressure,[12],677 ± 35 J/K/mol
same,molar heat capacity at constant pressure,[13],688 ± 36 J/K/mol
same,molar heat capacity at constant pressure,"353.13 K, Large sample (1 g) DSC",680 ± 35 J/K/mol
same,molar heat capacity at constant pressure,[14],695 ± 35 J/K/mol
same,molar heat capacity at constant pressure,[15],691 ± 36 J/K/mol
same,molar heat capacity at constant pressure,"358.12 K, Large sample (1 g) DSC",682 ± 35 J/K/mol
same,molar heat capacity at constant pressure,[16],698 ± 35 J/K/mol
same,molar heat capacity at constant pressure,[17],693 ± 36 J/K/mol
same,molar heat capacity at constant pressure,[18],701 ± 35 J/K/mol
same,molar heat capacity at constant pressure,"363.16 K, Large sample (1 g) DSC",686 ± 36 J/K/mol
same,molar heat capacity at constant pressure,[19],696 ± 36 J/K/mol
same,molar heat capacity at constant pressure,[20],705 ± 35 J/K/mol
same,molar heat capacity at constant pressure,"368.18 K, Large sample (1 g) DSC",689 ± 36 J/K/mol
same,molar heat capacity at constant pressure,[21],700 ± 36 J/K/mol
same,molar heat capacity at constant pressure,[22],691 ± 36 J/K/mol
same,molar heat capacity at constant pressure,[23],706 ± 35 J/K/mol
same,molar heat capacity at constant pressure,[24],703 ± 37 J/K/mol
same,molar heat capacity at constant pressure,"378.13 K, Large sample (1 g) DSC",694 ± 36 J/K/mol
same,molar heat capacity at constant pressure,[25],709 ± 35 J/K/mol
same,molar heat capacity at constant pressure,[26],706 ± 37 J/K/mol
same,molar heat capacity at constant pressure,[27],711 ± 36 J/K/mol
same,molar heat capacity at constant pressure,"383.17 K, Large sample (1 g) DSC",697 ± 36 J/K/mol
same,molar heat capacity at constant pressure,[28],709 ± 37 J/K/mol
same,molar heat capacity at constant pressure,[29],714 ± 36 J/K/mol
same,molar heat capacity at constant pressure,"388.16 K, Large sample (1 g) DSC",698 ± 36 J/K/mol
same,molar heat capacity at constant pressure,[30],713 ± 37 J/K/mol
same,molar heat capacity at constant pressure,"393.14 K, Large sample (1 g) DSC",703 ± 37 J/K/mol
same,molar heat capacity at constant pressure,[31],716 ± 36 J/K/mol
same,molar heat capacity at constant pressure,[32],716 ± 37 J/K/mol
same,molar heat capacity at constant pressure,[33],718 ± 36 J/K/mol
same,molar heat capacity at constant pressure,"398.18 K, Large sample (1 g) DSC",706 ± 37 J/K/mol
same,molar heat capacity at constant pressure,[34],720 ± 37 J/K/mol
same,molar heat capacity at constant pressure,[35],720 ± 36 J/K/mol
same,molar heat capacity at constant pressure,"403.16 K, Large sample (1 g) DSC",709 ± 37 J/K/mol
same,molar heat capacity at constant pressure,[36],725 ± 38 J/K/mol
same,molar heat capacity at constant pressure,"408.13 K, Large sample (1 g) DSC",712 ± 37 J/K/mol
same,molar heat capacity at constant pressure,[37],723 ± 36 J/K/mol
same,molar heat capacity at constant pressure,[38],728 ± 38 J/K/mol
same,molar heat capacity at constant pressure,[39],723 ± 36 J/K/mol
same,molar heat capacity at constant pressure,"413.16 K, Large sample (1 g) DSC",716 ± 37 J/K/mol
same,molar heat capacity at constant pressure,[40],732 ± 38 J/K/mol
same,molar heat capacity at constant pressure,"418.13 K, Large sample (1 g) DSC",719 ± 37 J/K/mol
same,molar heat capacity at constant pressure,[41],736 ± 38 J/K/mol
same,molar heat capacity at constant pressure,[42],739 ± 38 J/K/mol
CCCCn1cc[n+](C)c1.O=S(=O)([O-])C(F)(F)F [1-butyl-3-methylimidazolium trifluoromethanesulfonate],molar heat capacity at constant pressure,"313.16 K, Large sample (1 g) DSC",448 ± 23 J/K/mol
same,molar heat capacity at constant pressure,"315.15 K, Small sample (50 mg) DSC",449 ± 23 J/K/mol
same,molar heat capacity at constant pressure,"318.15 K, Large sample (1 g) DSC",449 ± 23 J/K/mol
same,molar heat capacity at constant pressure,[1],451 ± 23 J/K/mol
same,molar heat capacity at constant pressure,"323.14 K, Large sample (1 g) DSC",451 ± 23 J/K/mol
same,molar heat capacity at constant pressure,[2],452 ± 23 J/K/mol
same,molar heat capacity at constant pressure,"328.12 K, Large sample (1 g) DSC",451 ± 23 J/K/mol
same,molar heat capacity at constant pressure,[3],443 ± 22 J/K/mol
same,molar heat capacity at constant pressure,[4],454 ± 24 J/K/mol
same,molar heat capacity at constant pressure,[5],446 ± 22 J/K/mol
same,molar heat capacity at constant pressure,"333.17 K, Large sample (1 g) DSC",450 ± 23 J/K/mol
same,molar heat capacity at constant pressure,[6],457 ± 24 J/K/mol
same,molar heat capacity at constant pressure,"338.15 K, Large sample (1 g) DSC",453 ± 24 J/K/mol
same,molar heat capacity at constant pressure,[7],448 ± 22 J/K/mol
same,molar heat capacity at constant pressure,[8],460 ± 24 J/K/mol
same,molar heat capacity at constant pressure,"343.14 K, Large sample (1 g) DSC",455 ± 24 J/K/mol
same,molar heat capacity at constant pressure,[9],450 ± 23 J/K/mol
same,molar heat capacity at constant pressure,[10],462 ± 24 J/K/mol
same,molar heat capacity at constant pressure,[11],453 ± 23 J/K/mol
same,molar heat capacity at constant pressure,[12],456 ± 24 J/K/mol
same,molar heat capacity at constant pressure,[13],465 ± 24 J/K/mol
same,molar heat capacity at constant pressure,[14],454 ± 23 J/K/mol
same,molar heat capacity at constant pressure,"353.18 K, Large sample (1 g) DSC",459 ± 24 J/K/mol
same,molar heat capacity at constant pressure,[15],468 ± 24 J/K/mol
same,molar heat capacity at constant pressure,"358.13 K, Large sample (1 g) DSC",463 ± 24 J/K/mol
same,molar heat capacity at constant pressure,[16],458 ± 23 J/K/mol
same,molar heat capacity at constant pressure,[17],470 ± 24 J/K/mol
same,molar heat capacity at constant pressure,"363.14 K, Large sample (1 g) DSC",467 ± 24 J/K/mol
same,molar heat capacity at constant pressure,[18],460 ± 23 J/K/mol
same,molar heat capacity at constant pressure,[19],473 ± 25 J/K/mol
same,molar heat capacity at constant pressure,"368.14 K, Large sample (1 g) DSC",471 ± 24 J/K/mol
same,molar heat capacity at constant pressure,[20],463 ± 23 J/K/mol
same,molar heat capacity at constant pressure,[21],476 ± 25 J/K/mol
same,molar heat capacity at constant pressure,[22],472 ± 25 J/K/mol
same,molar heat capacity at constant pressure,[23],464 ± 23 J/K/mol
same,molar heat capacity at constant pressure,[24],479 ± 25 J/K/mol
same,molar heat capacity at constant pressure,"378.12 K, Large sample (1 g) DSC",474 ± 25 J/K/mol
same,molar heat capacity at constant pressure,[25],468 ± 23 J/K/mol
same,molar heat capacity at constant pressure,[26],481 ± 25 J/K/mol
same,molar heat capacity at constant pressure,[27],468 ± 23 J/K/mol
same,molar heat capacity at constant pressure,"383.16 K, Large sample (1 g) DSC",477 ± 25 J/K/mol
same,molar heat capacity at constant pressure,[28],484 ± 25 J/K/mol
same,molar heat capacity at constant pressure,"388.15 K, Large sample (1 g) DSC",479 ± 25 J/K/mol
same,molar heat capacity at constant pressure,[29],471 ± 24 J/K/mol
same,molar heat capacity at constant pressure,[30],487 ± 25 J/K/mol
same,molar heat capacity at constant pressure,"393.13 K, Large sample (1 g) DSC",482 ± 25 J/K/mol
same,molar heat capacity at constant pressure,[31],472 ± 24 J/K/mol
same,molar heat capacity at constant pressure,[32],489 ± 25 J/K/mol
same,molar heat capacity at constant pressure,[33],475 ± 24 J/K/mol
same,molar heat capacity at constant pressure,"398.16 K, Large sample (1 g) DSC",484 ± 25 J/K/mol
same,molar heat capacity at constant pressure,[34],492 ± 26 J/K/mol
same,molar heat capacity at constant pressure,"403.14 K, Large sample (1 g) DSC",487 ± 25 J/K/mol
same,molar heat capacity at constant pressure,[35],476 ± 24 J/K/mol
same,molar heat capacity at constant pressure,[36],495 ± 26 J/K/mol
same,molar heat capacity at constant pressure,[37],477 ± 24 J/K/mol
same,molar heat capacity at constant pressure,"408.17 K, Large sample (1 g) DSC",489 ± 25 J/K/mol
same,molar heat capacity at constant pressure,[38],498 ± 26 J/K/mol
same,molar heat capacity at constant pressure,"413.14 K, Large sample (1 g) DSC",491 ± 26 J/K/mol
same,molar heat capacity at constant pressure,[39],481 ± 24 J/K/mol
same,molar heat capacity at constant pressure,[40],500 ± 26 J/K/mol
same,molar heat capacity at constant pressure,"418.17 K, Large sample (1 g) DSC",494 ± 26 J/K/mol
same,molar heat capacity at constant pressure,[41],503 ± 26 J/K/mol
same,molar heat capacity at constant pressure,"423.14 K, Large sample (1 g) DSC",494 ± 26 J/K/mol
same,molar heat capacity at constant pressure,[42],506 ± 26 J/K/mol
